What was measured:
Assay type in all cases: cell-based
[1] = tested on: EGFR Del19/T790M/C797S (H1975-clone #28); assay: EGFR degradation HTRF assay, H1975-clone #28 DTC cells; details: H1975 # 28 DTC cells; for DC50: EGFR degradation, IC50 (DC50) from curve fit, read-out: DC50(nM) H1975 # 28 DTC; for Dmax (%) H1975 # 28 DTC: maximum percentage of inhibition (degradation)
In short: (§1)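 H1975 clones stably overexpressing mutant EGFR, with endogenous EGFR knocked out by sgRNA and homozygosity confirmed by sequencing, were treated 16h at 37° C. with compounds in 0.2% DMSO (top final 10 uM, 5-fold, 8 doses). Lysates were read by HTRF (665/620 nm); DC50 and Dmax came from fitting % degradation versus DMSO control.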

[2] = molecular target: T1, EGFR L858R/T790M/C797S (BaF3-LTC cells) (Homo sapiens, UniProt P00533, C797S/L858R/T790M); assay: EGFR degradation HTRF assay, BaF3-LTC cells; details: BaF3-LTC cells; for DC50: EGFR degradation, IC50 (DC50) from curve fit, read-out: DC50(nM) BaF3-LTC; for Dmax: maximum percentage of inhibition (degradation), read-out: Dmax (%) BaF3-LTC
T1 construct: expressed in transfected cells; host or cells: BaF3
T1 sequence (P00533 25-1210 T790M/C797S/L858R): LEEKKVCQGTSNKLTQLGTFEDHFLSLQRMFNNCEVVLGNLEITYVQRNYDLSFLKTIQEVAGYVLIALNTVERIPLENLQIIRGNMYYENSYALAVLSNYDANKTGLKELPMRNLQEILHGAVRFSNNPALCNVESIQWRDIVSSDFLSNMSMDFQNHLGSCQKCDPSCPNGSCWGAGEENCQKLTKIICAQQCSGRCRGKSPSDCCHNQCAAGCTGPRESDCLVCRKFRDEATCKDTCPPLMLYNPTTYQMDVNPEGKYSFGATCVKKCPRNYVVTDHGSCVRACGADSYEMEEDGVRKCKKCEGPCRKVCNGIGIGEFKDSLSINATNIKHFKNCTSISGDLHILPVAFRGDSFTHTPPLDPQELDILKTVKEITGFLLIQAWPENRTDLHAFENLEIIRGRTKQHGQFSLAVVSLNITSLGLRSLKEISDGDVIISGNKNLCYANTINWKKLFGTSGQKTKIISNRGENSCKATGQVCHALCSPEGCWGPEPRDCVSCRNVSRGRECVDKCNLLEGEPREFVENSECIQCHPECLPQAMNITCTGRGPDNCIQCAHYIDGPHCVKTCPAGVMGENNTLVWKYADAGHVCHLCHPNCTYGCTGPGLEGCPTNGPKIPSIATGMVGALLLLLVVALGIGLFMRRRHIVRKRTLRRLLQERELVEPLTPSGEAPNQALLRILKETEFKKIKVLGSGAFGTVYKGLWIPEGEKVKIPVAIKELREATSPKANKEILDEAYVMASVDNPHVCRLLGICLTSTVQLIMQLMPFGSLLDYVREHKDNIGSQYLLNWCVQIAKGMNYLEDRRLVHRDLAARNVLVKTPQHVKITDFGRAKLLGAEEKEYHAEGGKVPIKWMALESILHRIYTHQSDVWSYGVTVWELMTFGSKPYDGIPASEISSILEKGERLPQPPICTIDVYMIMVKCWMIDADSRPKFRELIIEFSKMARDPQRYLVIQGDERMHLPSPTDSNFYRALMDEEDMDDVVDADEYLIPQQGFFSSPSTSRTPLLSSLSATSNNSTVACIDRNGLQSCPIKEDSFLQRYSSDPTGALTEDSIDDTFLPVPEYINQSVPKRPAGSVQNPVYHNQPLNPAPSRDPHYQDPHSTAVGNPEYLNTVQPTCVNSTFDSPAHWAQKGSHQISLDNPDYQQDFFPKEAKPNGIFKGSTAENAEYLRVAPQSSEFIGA
In short: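 Cells treated 16 h at 37 °C, 5% CO2 in medium with 0.2% DMSO; top final concentration 10 uM, 5-fold dilution, 8 doses. Lysates read by HTRF (665/620 nm); degradation % versus DMSO high control, DC50 from four-parameter fit, Dmax as maximal degradation.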

[3] = molecular target: T2, EGFR L858R/C797S (BaF3 LC cells) (Homo sapiens, UniProt P00533, C797S/L858R); assay: EGFR degradation HTRF assay, BaF3 LC cells; details: BaF3 LC, 16h treatment; for Dmax: maximum percentage of degradation, read-out: BaF3 LC Dmax (%); for DC50: read-out: BaF3 LC DC50
T2 construct: expressed in transfected cells; host or cells: BaF3
T2 sequence (P00533 25-1210 C797S/L858R): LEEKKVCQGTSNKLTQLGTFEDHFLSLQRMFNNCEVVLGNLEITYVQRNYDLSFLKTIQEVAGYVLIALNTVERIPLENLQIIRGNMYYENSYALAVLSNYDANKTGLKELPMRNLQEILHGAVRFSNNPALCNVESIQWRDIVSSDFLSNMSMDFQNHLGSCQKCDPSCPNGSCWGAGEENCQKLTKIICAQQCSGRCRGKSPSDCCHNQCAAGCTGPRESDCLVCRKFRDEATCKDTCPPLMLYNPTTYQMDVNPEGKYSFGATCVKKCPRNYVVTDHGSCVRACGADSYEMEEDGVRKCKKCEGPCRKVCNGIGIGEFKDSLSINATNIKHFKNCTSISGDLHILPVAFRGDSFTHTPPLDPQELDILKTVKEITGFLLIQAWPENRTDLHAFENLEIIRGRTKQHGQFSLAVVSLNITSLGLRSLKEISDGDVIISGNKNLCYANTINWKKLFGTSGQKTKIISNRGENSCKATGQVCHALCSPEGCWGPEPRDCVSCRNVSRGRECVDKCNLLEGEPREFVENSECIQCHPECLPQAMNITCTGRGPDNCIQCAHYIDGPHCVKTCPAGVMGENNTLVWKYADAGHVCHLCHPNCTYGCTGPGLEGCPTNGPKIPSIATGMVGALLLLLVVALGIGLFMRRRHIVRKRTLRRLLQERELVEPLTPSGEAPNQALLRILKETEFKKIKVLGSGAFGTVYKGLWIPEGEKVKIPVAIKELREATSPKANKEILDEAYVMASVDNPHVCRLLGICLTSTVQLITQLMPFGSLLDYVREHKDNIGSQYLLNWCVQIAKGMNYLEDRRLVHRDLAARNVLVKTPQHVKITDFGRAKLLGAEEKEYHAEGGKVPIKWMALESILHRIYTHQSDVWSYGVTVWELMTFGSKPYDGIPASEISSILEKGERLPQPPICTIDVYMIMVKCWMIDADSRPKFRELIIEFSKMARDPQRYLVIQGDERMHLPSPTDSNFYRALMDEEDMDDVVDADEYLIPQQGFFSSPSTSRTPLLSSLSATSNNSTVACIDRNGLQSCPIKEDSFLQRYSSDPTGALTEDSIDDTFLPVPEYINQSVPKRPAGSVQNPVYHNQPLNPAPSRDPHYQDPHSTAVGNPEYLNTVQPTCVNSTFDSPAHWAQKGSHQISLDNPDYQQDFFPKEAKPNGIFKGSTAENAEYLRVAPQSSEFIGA

[4] = tested on: EGFR Del19/C797S (H1975-clone #23); assay: EGFR degradation HTRF assay, H1975-clone #23 DC cells; details: 16h treatment; for H1975 #23 DC Dmax (%): maximum percentage of degradation; for DC50: H1975 #23 DC, read-out: H1975 #23 DC DC50
In short: as §1

| Structure (SMILES) | DC50 [1] [nM] | Dmax (%) H1975 # 28 DTC [1] [%] | DC50 [2] [nM] | Dmax [2] [%] | Dmax [3] [%] | DC50 [3] [nM] | H1975 #23 DC Dmax (%) [4] [%] | DC50 [4] [nM] |
| --- | --- | --- | --- | --- | --- | --- | --- | --- |
| CCc1cc(Nc2ncc(Br)c(Nc3ccc4c(=O)n(C)ncc4c3P(C)(C)=O)n2)c(OC)cc1N1CCC(N2CCN(C(=O)[C@@H]3CCN(c4cc(F)c([C@H]5CCC(=O)NC5=O)c(F)c4)C3)CC2)CC1 [Example 528, (R)-3-(4-((R)-3-(4-(1-(4-((5-bromo-4-((5-(dimethylphosphoryl)-2-methyl-1-oxo-1,2-dihydrophthalazin-6-yl)amino)pyrimidin-2-yl)amino)-2-ethyl-5-methoxyphenyl)piperidin-1)piperazine-1-carbonyl)pyrrolidin-1-yl)2,6-difluorophenyl)piperidine-2,6-dione] | 0.632 | 86.11 | 3.63 | 97.3 | 83.9 | 14.9 | 54.87 | 1.58 |
| CCOc1cc(N2CCC(N3CCN(CCc4c(F)ccc5c4n(C)c(=O)n5C4CCC(=O)NC4=O)CC3)CC2)c(CC)cc1Nc1ncc(Br)c(Nc2ccc3nc(CC)ccc3c2P(C)(C)=O)n1 (stereo not shown) [Example 503, 3-(4-(2-(4-(1-(4-((5-bromo-4-((5-(dimethylphosphoryl)-2-ethylquinolin-6-yl)amino)pyrimidin-2-yl)amino)-5-ethoxy-2-ethylphenyl)piperidin-4-yl)piperazin-1-yl)ethyl)-5-fluoro-3-methyl-2-oxo-2,3-dihydro-1H-benzo[d]imidazol-1-yl)piperidine-2,6-dione] | 1.34 | 79.81 | 7 | – | – | 7.53 | 81.03 | 1.57 |
| CCc1ccc2c(P(C)(C)=O)c(Nc3nc(Nc4cc(CC)c(N5CCC(N6CCN(CCc7cc(F)c(C8CCC(=O)NC8=O)c(F)c7)CC6)CC5)cc4OC)ncc3Br)ccc2n1 (stereo not shown) [Example 485, 3-(4-(2-(4-(1-(4-((5-bromo-4-((5-(dimethylphosphoryl)-2-ethylquinolin-6-yl)amino)pyrimidin-2-yl)amino)-2-ethyl-5-methoxyphenyl)piperidin-4-yl)piperazin-1-yl)ethyl)-2,6-difluorophenyl)piperidine-2,6-dione] | 2.78 | 70.65 | 26.9 | – | – | 35.1 | 82.7 | 10.4 |
| CCOc1cc(N2CCC(N3CCN(CC4CN(c5cccc6c5oc(=O)n6C5CCC(=O)NC5=O)C4)CC3)CC2)c(CC)cc1Nc1ncc(Br)c(Nc2ccc3nc(CC)ccc3c2P(C)(C)=O)n1 (stereo not shown) [Example 497] | 1.01 | 80.94 | 6.27 | 86.6 | 93.3 | 5.19 | 74.87 | 3.32 |
| CCOc1cc(N2CCC(N3CCN(C(=O)[C@@H]4CCN(c5cc(F)c([C@H]6CCC(=O)NC6=O)c(F)c5)C4)CC3)CC2)c(CC)cc1Nc1ncc(Br)c(Nc2ccc3nc(C)ccc3c2P(C)(C)=O)n1 [Example 531, (R)-3-(4-((R)-3-(4-(1-(4-((5-bromo-4-((5-(dimethylphosphoryl)-2-methylquinolin-6-yl)amino)pyrimidin-2-yl)amino)-5-ethoxy-2-ethylphenyl)piperidin-4-yl)piperazine-1-carbonyl)pyrrolidin-1-yl)-2,6-difluorophenyl)piperidine-2,6-dione] | 1.55 | 74.06 | 7.03 | 96.4 | 83.5 | 51.8 | 53.36 | 9.42 |
| CCOc1cc(N2CCC(N3CCN(CCc4cccc5c4C(C)(C)C(=O)N5C4CCC(=O)NC4=O)CC3)CC2)c(CC)cc1Nc1ncc(Br)c(Nc2ccc3nc(CC)ccc3c2P(C)(C)=O)n1 (stereo not shown) [Example 572, 3-(4-(2-(4-(1-(4-((5-bromo-4-((5-(dimethylphosphoryl)-2-ethylquinolin-6-yl)amino)pyrimidin-2-yl)amino)-5-ethoxy-2-ethylphenyl)piperidin-4-yl)piperazin-1-yl)ethyl)-3,3-dimethyl-2-oxoindolin-1-yl)piperidine-2,6-dione] | 1.81 | 83.86 | 3.21 | – | – | 3.8 | 69.16 | 4.74 |
| CCOc1cc(N2CCC(N3CCN(C(=O)[C@@H]4CCN(c5cc(F)c([C@H]6CCC(=O)NC6=O)c(F)c5)C4)CC3)CC2)c(CC)cc1Nc1ncc(Br)c(Nc2ccc3nc(C)c(F)cc3c2P(C)(C)=O)n1 [Example 577, (R)-3-(4-((R)-3-(4-(1-(4-((5-bromo-4-((5-(dimethylphosphoryl)-3-fluoro-2-methylquinolin-6-yl)amino)pyrimidin-2-yl)amino)-5-ethoxy-2-ethylphenyl)piperidin-4-yl)piperazine-1-carbonyl)pyrrolidin-1-yl)-2,6-difluorophenyl)piperidine-2,6-dione] | 1.08 | 87.91 | 8.4 | – | – | 53.8 | 64.13 | 7.94 |
| CCc1cc(Nc2ncc(Br)c(Nc3ccc4c(=O)n(C5CC5)ncc4c3P(C)(C)=O)n2)c(OC)cc1N1CCC(N2CCN(C(=O)[C@@H]3CCN(c4cc(F)c([C@H]5CCC(=O)NC5=O)c(F)c4)C3)CC2)CC1 [Example 526, (R)-3-(4-((R)-3-(4-(1-(4-((5-bromo-4-((2-cyclopropyl-5-(dimethylphosphoryl)-1-oxo-1,2-dihydrophthalazin-6-yl)amino)pyrimidin-2-yl)amino)-2-ethyl-5-methoxyphenyl)piperidin-4-yl)piperazine-1-carbonyl)pyrrolidin-1-yl)-2,6-difluorophenyl)piperidine-2,6-dione] | 0.574 | 83.99 | 3.77 | 96.3 | 74.6 | 40.3 | 52.26 | 5.87 |
| CCc1ccc2c(P(C)(C)=O)c(Nc3nc(Nc4cc(C)c(N5CCC(N6CCN(CCc7cccc8c7n(C)c(=O)n8C7CCC(=O)NC7=O)CC6)CC5)cc4OC4CC4)ncc3Br)ccc2n1 (stereo not shown) [Example 584, 3-(4-(2-(4-(1-(4-((5-bromo-4-((5-(dimethylphosphoryl)-2-ethylquinolin-6-yl)amino)pyrimidin-2-yl)amino)-5-cyclopropoxy-2-methylphenyl)piperidin-4-yl)piperazin-1-yl)ethyl)-3-methyl-2-oxo-2,3-dihydro-1H-benzo[d]imidazol-1-yl)piperidine-2,6-dione] | 0.634 | 79.5 | 2.72 | – | – | 4.9 | 70.66 | 2.7 |
| CCOc1cc(N2CCC(N3CCN(CCc4cc(C)cc5c4oc(=O)n5C4CCC(=O)NC4=O)CC3)CC2)c(CC)cc1Nc1ncc(Br)c(Nc2ccc3nc(CC)ccc3c2P(C)(C)=O)n1 (stereo not shown) [Example 469, 3-(7-(2-(4-(1-(4-((5-bromo-4-((5-(dimethylphosphoryl)-2-ethylquinolin-6-yl)amino)pyrimidin-2-yl)amino)-5-ethoxy-2-ethylphenyl)piperidin-4-yl)piperazin-1-yl)ethyl)-5-methyl-2-oxobenzo[d]oxazol-3(2H)-yl)piperidine-2,6-dione] | 2.6 | 81.32 | 11.6 | 90 | 89.8 | 21.7 | 73.64 | 1.48 |
| CCc1ncc2c(P(C)(C)=O)c(Nc3nc(Nc4cc(CC)c(N5CCC(N6CCN(C(=O)[C@@H]7CCN(c8cc(F)c([C@H]9CCC(=O)NC9=O)c(F)c8)C7)CC6)CC5)cc4OC)ncc3Br)ccc2n1 [Example 549, (R)-3-(4-((R)-3-(4-(1-(4-((5-bromo-4-((5-(dimethylphosphoryl)-2-ethylquinazolin-6-yl)amino)pyrimidin-2-yl)amino)-2-ethyl-5-methoxyphenyl)piperidin-4-yl)piperazine-1-carbonyl)pyrrolidin-1-yl)-2,6-difluorophenyl)piperidine-2,6-dione] | 0.601 | 88.85 | 3.1 | – | – | 1.59 | 63.66 | 2.96 |
